Data as given in ChEMBL document CHEMBL5370598, “[3H]UR-JG102-A Radiolabeled Cyclic Peptide with High Affinity and Excellent Selectivity for the Neuropeptide Y Y4 Receptor” (J Med Chem, 2023).
pEC50, pKd, pKi: −log10 of the molar value. One block for each compound: values may come before it.

Assays:
[1] = biological target: T1, Neuropeptide Y receptor type 4 (Homo sapiens, UniProt P50391); test: (§1) Displacement of [3H]-(9S,12S,15S,19R,E)-4-amino-N-((S)-1-(((S)-1-(((S)-1-amino-3-(4-hydroxyphenyl)-1-oxopropan-2-yl)amino)-5-guanidino-1-oxopentan-2-yl)amino)-4-methyl-1-oxopentan-2-yl)-15-(3-guanidinopropyl)-12-(4-hydroxybenzyl)-2,11,14,17,20-pentaoxo-19-(4-(propanamido-2,3-t2)butanamido)-1,3,5,10,13,16,21-heptaazacyclopentacos-3-ene-9-carboxamide from human Y4R expressed in CHO cells coexpressing Gqi5-mtAEQ under isotonic sodium containing buffer condition; type: cell-based; conditions: for pKi: read-out: Ki; for Ki: read-out: pKi (converted)
T1 sequence (P50391 whole entry): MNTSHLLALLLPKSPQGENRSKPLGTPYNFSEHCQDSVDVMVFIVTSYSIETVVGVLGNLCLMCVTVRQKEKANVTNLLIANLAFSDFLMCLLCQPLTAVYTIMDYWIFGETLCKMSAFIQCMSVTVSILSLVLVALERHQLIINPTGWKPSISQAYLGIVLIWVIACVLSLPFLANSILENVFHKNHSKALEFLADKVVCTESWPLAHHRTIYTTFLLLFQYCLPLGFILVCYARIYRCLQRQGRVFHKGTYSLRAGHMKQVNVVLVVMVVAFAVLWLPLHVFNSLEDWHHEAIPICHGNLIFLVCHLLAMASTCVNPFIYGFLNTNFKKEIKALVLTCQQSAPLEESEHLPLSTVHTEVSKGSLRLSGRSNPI

[2] = biological target: T1, Neuropeptide Y receptor type 4; test: Binding affinity to human Y4R under sodium free condition
[3] = biological target: T1, Neuropeptide Y receptor type 4; test: as §1, with “hypotonic” for “isotonic”, “free” for “containing”; type: cell-based; conditions: for pKi: read-out: Ki
[4] = biological target: T1, Neuropeptide Y receptor type 4; test: Binding affinity to human Y4R under hypotonic sodium free condition
[5] = biological target: T1, Neuropeptide Y receptor type 4; test: Binding affinity to human Y4R under 140 mM sodium condition
Homo sapiens [6] = species on record: Homo sapiens; test: Selectivity ratio of pKi for human Y1R to pKi for human Y4R
[7] = Chemical stability in PBS buffer at pH 7.4 after 48 hrs by RP-HPLC analysis; type: physicochemical; conditions: pH 7.4, 48 h
[8] = biological target: T1, Neuropeptide Y receptor type 4; test: Agonist activity at human Y4R expressed in CHO cells co-expressing Gqi5-mtAEQ by calcium2+ aequorin assay relative to control; type: functional, cell-based; conditions: filed as agonist
[9] = biological target: T1, Neuropeptide Y receptor type 4; test: Agonist activity at human Y4R expressed in CHO cells co-expressing Gqi5-mtAEQ by calcium2+ aequorin assay; type: functional, cell-based
Homo sapiens [10] = species on record: Homo sapiens; test: Selectivity ratio of pKi for human Y2R to pKi for human Y4R
[11] = biological target: T1, Neuropeptide Y receptor type 4; test: Binding affinity to human Y4R expressed in CHO cells co-expressing Gqi5-mtAEQ assessed as Kon under sodium free buffer condition; type: cell-based; conditions: filed as agonist, tested as the 3H-labelled form
[12] = biological target: T1, Neuropeptide Y receptor type 4; test: Binding affinity to human Y4R expressed in CHO cells co-expressing Gqi5-mtAEQ assessed as Koff preincubated for 20 mins under DPBS condition; type: cell-based; conditions: filed as agonist, tested as the 3H-labelled form
[13] = biological target: T2, Neuropeptide Y receptor type 1 (Homo sapiens, UniProt P25929); test: Displacement of [3H]UR-MK299 from human Y1R expressed in SK-N-MC cells; type: cell-based
T2 sequence (P25929 whole entry): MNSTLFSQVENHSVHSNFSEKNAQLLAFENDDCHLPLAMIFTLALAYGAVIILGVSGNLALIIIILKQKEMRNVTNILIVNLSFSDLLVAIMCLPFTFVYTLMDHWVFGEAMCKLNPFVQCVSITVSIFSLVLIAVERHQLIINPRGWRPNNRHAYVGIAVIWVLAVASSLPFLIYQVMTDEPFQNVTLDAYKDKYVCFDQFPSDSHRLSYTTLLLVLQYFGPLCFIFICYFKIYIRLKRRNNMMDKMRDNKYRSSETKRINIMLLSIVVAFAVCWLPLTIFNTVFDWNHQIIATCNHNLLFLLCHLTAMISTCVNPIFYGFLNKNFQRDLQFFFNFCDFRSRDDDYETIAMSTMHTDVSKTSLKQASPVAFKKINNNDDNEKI

[14] = biological target: T3, Neuropeptide Y receptor type 5 (Homo sapiens, UniProt Q15761); test: Displacement of [3H]propionyl-pNPY from human Y5R expressed in HEC-1B cells; type: cell-based, HEC-1B cell line
T3 sequence (Q15761 whole entry): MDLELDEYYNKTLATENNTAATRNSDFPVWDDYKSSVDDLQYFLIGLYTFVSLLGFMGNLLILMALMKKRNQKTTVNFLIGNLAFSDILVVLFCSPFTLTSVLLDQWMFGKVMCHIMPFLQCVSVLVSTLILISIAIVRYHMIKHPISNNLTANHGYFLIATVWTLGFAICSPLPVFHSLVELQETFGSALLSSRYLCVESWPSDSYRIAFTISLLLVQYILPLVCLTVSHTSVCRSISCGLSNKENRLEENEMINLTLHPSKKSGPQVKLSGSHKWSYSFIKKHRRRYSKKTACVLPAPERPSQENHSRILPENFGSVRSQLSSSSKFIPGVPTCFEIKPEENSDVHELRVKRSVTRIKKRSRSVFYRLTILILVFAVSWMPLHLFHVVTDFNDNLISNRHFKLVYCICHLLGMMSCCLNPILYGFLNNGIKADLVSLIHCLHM

[15] = biological target: T1, Neuropeptide Y receptor type 4; test: Agonist activity at human Y4R expressed in HEK293T cells incubated for 60 mins by cAMP CAMYEN assay; type: functional, cell-based
[16] = biological target: T1, Neuropeptide Y receptor type 4; test: Agonist activity at human Y4R expressed in HEK293T cells by miniGsi assay; type: functional, cell-based
[17] = biological target: T1, Neuropeptide Y receptor type 4; test: Binding affinity to human Y4R expressed in CHO cells co-expressing Gqi5-mtAEQ assessed as observed association rate constant under sodium free buffer condition; type: cell-based; conditions: filed as agonist, tested as the 3H-labelled form
[18] = biological target: T1, Neuropeptide Y receptor type 4; test: Agonist activity at human Y4R expressed in HEK293T cells by miniGsi assay relative to control; type: functional, cell-based; conditions: filed as agonist
[19] = biological target: T1, Neuropeptide Y receptor type 4; test: Binding affinity to human Y4R expressed in CHO cells co-expressing Gqi5-mtAEQ assessed as Koff preincubated for 2 hrs under DPBS condition; type: cell-based; conditions: filed as agonist, tested as the 3H-labelled form
[20] = biological target: T1, Neuropeptide Y receptor type 4; test: Binding affinity to human Y4R expressed in CHO cells co-expressing Gqi5-mtAEQ assessed as observed association rate constant preincubated for 20 mins under DPBS condition; type: cell-based; conditions: filed as agonist, tested as the 3H-labelled form
[21] = biological target: T1, Neuropeptide Y receptor type 4; test: Binding affinity to human Y4R expressed in CHO cells co-expressing Gqi5-mtAEQ assessed as Koff under sodium free buffer condition; type: cell-based; conditions: filed as agonist, tested as the 3H-labelled form
[22] = biological target: T4, Neuropeptide Y receptor type 2 (Homo sapiens, UniProt P49146); test: Displacement of [3H]propionyl-pNPY from human Y2R expressed in CHO cells; type: cell-based
T4 sequence (P49146 whole entry): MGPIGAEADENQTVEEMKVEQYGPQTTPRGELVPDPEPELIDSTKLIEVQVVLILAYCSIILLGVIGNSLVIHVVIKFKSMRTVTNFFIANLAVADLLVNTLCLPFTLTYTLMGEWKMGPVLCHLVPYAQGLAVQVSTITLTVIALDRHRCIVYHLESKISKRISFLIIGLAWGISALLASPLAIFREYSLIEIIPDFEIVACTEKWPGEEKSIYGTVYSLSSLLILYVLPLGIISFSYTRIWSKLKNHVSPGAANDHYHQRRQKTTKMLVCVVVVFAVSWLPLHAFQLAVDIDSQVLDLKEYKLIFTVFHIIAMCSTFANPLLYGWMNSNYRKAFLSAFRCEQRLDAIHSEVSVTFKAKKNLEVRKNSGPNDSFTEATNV

Homo sapiens [23] = species on record: Homo sapiens; test: Selectivity ratio of pKi for human Y5R to pKi for human Y4R
[24] = biological target: T1, Neuropeptide Y receptor type 4; test: Displacement of [3H]UR-KK200 from human Y4R expressed in CHO cells co-expressing Gqi5-mtAEQ; type: cell-based
[25] = biological target: T1, Neuropeptide Y receptor type 4; test: Binding affinity to human Y4R expressed in CHO cells co-expressing Gqi5-mtAEQ assessed as Kon preincubated for 20 mins under DPBS condition; type: cell-based; conditions: filed as agonist, tested as the 3H-labelled form
[26] = biological target: T1, Neuropeptide Y receptor type 4; test: Agonist activity at human Y4R expressed in HEK293T cells incubated for 60 mins by cAMP CAMYEN assay relative to control; type: functional, cell-based; conditions: filed as agonist
[27] = biological target: T1, Neuropeptide Y receptor type 4; test: Binding affinity to human Y4R expressed in CHO cells co-expressing Gqi5-mtAEQ assessed as Kon preincubated for 2 hrs under DPBS condition; type: cell-based; conditions: filed as agonist, tested as the 3H-labelled form

pKi [1]: 7.96
Ki [1]: 10.2 nM
pKd [2]: 9.17
pKi [3]: 9.41
pKi [4]: 9.06
pKd [5]: 8.01
SMILES: [3H]CC([3H])C(=O)N[C@H](CCCC[C@@H](N)C(=O)N[C@@H](Cc1ccc(O)cc1)C(=O)N[C@@H](CCCNC(=N)N)C(=O)N[C@@H](CC(C)C)C(=O)N[C@@H](CCCNC(=N)N)C(=O)N[C@@H](Cc1ccc(O)cc1)C(N)=O)C(=O)N[C@@H](Cc1ccc(O)cc1)C(=O)N[C@@H](CCCNC(=N)N)C(=O)N[C@@H](CC(C)C)C(=O)N[C@@H](CCCNC(=N)N)C(=O)N[C@@H](Cc1ccc(O)cc1)C(N)=O (stereo partly specified)

Ratio pKi (Homo sapiens [6]): > 27000
Ratio pKi (Homo sapiens [6]; tested as the 3H-labelled form): > 27000
Stability [7]: Stable
pKi [1]: 10.06
Ki [1]: 0.0832 nM
Emax [8]: 65%
pEC50 ([9]; read-out: EC50): 8.27
EC50 ([9]; read-out: pEC50 (converted)): 5.13 nM
Ratio pKi (Homo sapiens [10]): > 27000
Ratio pKi (Homo sapiens [10]; tested as the 3H-labelled form): > 27000
K [11]: 6.83e+07 M⁻¹ s⁻¹
K [12]: 0.12 min⁻¹
Ki ([13]; read-out: pKi (converted)): > 1000 nM
pKi ([13]; sk-n-mc, read-out: Ki): < 6.00
pKi ([14]; hec-1b cell line, read-out: Ki): < 6.00
Ki ([14]; read-out: pKi (converted)): > 1000 nM
pEC50 ([15]; read-out: EC50): 9.77
EC50 ([15]; read-out: pEC50 (converted)): 0.126 nM
pEC50 [16]: 8.29
pKi [3]: 11.00
Ki ([3]; read-out: pKi (converted)): 0.00891 nM
K [17]: 0.071 min⁻¹
Emax [18]: 60%
K [19]: 0.059 min⁻¹
K [20]: 0.54 min⁻¹
K [21]: 0.009 min⁻¹
pKi ([22]; read-out: Ki): < 5.52
Ki ([22]; read-out: pKi (converted)): > 3160 nM
Ratio pKi (Homo sapiens [23]): > 27000
Ratio pKi (Homo sapiens [23]; tested as the 3H-labelled form): > 27000
pKi ([24]; read-out: Ki): 10.44
Ki ([24]; read-out: pKi (converted)): 0.0316 nM
K [25]: 1.4e+08 M⁻¹ s⁻¹
Emax [26]: 83%
K [27]: 1.17e+07 M⁻¹ s⁻¹
SMILES: CCC(=O)NCCCC(=O)N[C@@H]1CC(=O)N[C@@H](CCCNC(=N)N)C(=O)N[C@@H](Cc2ccc(O)cc2)C(=O)N[C@H](C(=O)N[C@@H](CC(C)C)C(=O)N[C@@H](CCCNC(=N)N)C(=O)N[C@@H](Cc2ccc(O)cc2)C(N)=O)CCCN/C(N)=N/C(=O)NCCCCNC1=O.O=C(O)C(F)(F)F.O=C(O)C(F)(F)F.O=C(O)C(F)(F)F
